The test system of test [1] is MCF-7 human breast adenocarcinoma. As to the kind of experiment: NT4 binding to cells by flow cytometry. The format is cell-based. The note with it: heparinase I/III blend 0.03 IU/ml, 1 h + 1 h at 37°C, 1 μM NT4-biotin, 30 min, room temperature, streptavidin–FITC, repeated two times. As for the experimental part: (§1) PANC-1 human pancreas adenocarcinoma, HT-29 human colon adenocarcinoma, and MCF-7 and MDA-MB-231 human breast adenocarcinoma cells were grown in the recommended American Type Culture Collection (ATCC) media, supplemented with 10% fetal calf serum, 200 μg/ml glutamine, 100 μg/ml streptomycin, 60 μg/ml penicillin, and maintained at 37°C, 5% CO2. Cell lines were purchased from ATCC, and cell profiling was analyzed to authenticate human cell lines (BMR Genomics).
(§2) All experiments were performed using 2 × 10^5 cells in 96-well U-bottom plates. All dilutions were performed in phosphate-buffered saline (PBS), containing 5 mM EDTA and 1% bovine serum albumin (BSA).
(§3) Cells were incubated with 1 μM NT4-biotin for 30 min at room temperature and then incubated with 1 μg/ml streptavidin–fluorescein isothiocyanate (FITC). For heparinase treatment, cells were incubated for 1 h at 37°C on the plates with 0.03 IU/ml heparinase I/III blend (Sigma Aldrich), and then harvested and incubated with the same concentration of heparinase in suspension for an additional hour at 37°C before NT4 staining. All experiments were repeated two times. P values were calculated using a two-tailed Student t-test and GraphPad Prism 5.0 software.
For orientation: In flow cytometry, cells or beads pass a laser one at a time.

The test system of test [2] is PANC-1 human pancreas adenocarcinoma. In words: NT4 binding to cells by flow cytometry. The format is cell-based. The note with it: 1 μM NT4-biotin. The method, then: as §1, §2, §3
Test [3] relates to MDA-MB-231 human breast adenocarcinoma. As to the kind of experiment: NT4 binding to cells by flow cytometry. Format: cell-based. The note with it: heparinase I/III blend 0.03 IU/ml, 1 h + 1 h at 37°C, 1 μM NT4-biotin, 30 min, room temperature, streptavidin–FITC, repeated two times. As for the experimental part: as §1, §2, §3
In test [4] the test system is HT-29 human colon adenocarcinoma. In words: NT4 binding to cells by flow cytometry. The format is cell-based. The note with it: 1 μM NT4-biotin. As for the experimental part:
as §1, §2, §3

In a further test the test system is cancer cells or tissues. Also noted: method as in PMID 27255651, PMID 23713525. The note with it: competitors heparin and HS; ref [13], [19]; cited from earlier work.
Another test concerns syndecan-3. As to the kind of experiment: SPR, NT4 binding to recombinant syndecan-3. More on the design: species or system human. The following applies: rHSPG 25 μg/mL over immobilized NT4. The method, then: (§4) Experiments were performed on a Biacore T100 instrument (GE Healthcare). All materials were purchased from GE Healthcare unless otherwise specified. Full-length recombinant human HSPG were purchased from R&D Systems. Syndecan-3, syndecan-4, and glypican-3 were obtained from the mouse myeloma cell line (NS0), and glypican-4 was obtained from the Chinese Hamster Ovary cell line. The activity of syndecan-4, glypican-3, and glypican-4 was measured by the supplier as the ability of the immobilized protein to bind FGF-basic. The activity of syndecan-3 was measured by the supplier as the ability of the immobilized protein to inhibit adhesion of Saos-2 human osteosarcoma cells to human fibronectin.
(§5) NT4-biotin was captured on a CM5 sensor chip where streptavidin had previously been immobilized by standard amine coupling. Briefly, the sensor chip surface was activated with a mixture of 0.1 M 1-ethyl-3(3-dimethylaminopropyl)-carbodiimide (EDC) and 0.4 M N-hydroxyl succinimide (NHS) for 7 min at a flow rate of 5 μl/min. Streptavidin was injected over the surface for 7 min, and finally, 1 M ethanolamine pH 8.5 was used to block any activated carboxyl groups. […]
(§6) Kinetics were analyzed with the Biacore T100 evaluation 1.1.1 software using the 1:1 Langmuir model to fit the curves.
(SPR reads the build-up and loss of mass on a sensor chip optically.)

A further test has as its system syndecan-4. In words: SPR, NT4 binding to recombinant syndecan-4. More on the design: species or system human. The note with it: rHSPG over immobilized NT4. The method, then: as §4, §5, §6
The conditions of test [5]: ref [13], [19] (b5); cited from earlier work. The source says:
NT4 peptides can be conjugated with different functional units and can selectively deliver drugs for cancer therapy or transport tracers for tumor imaging ([11], [12], [15]–[18]). […] NT4 transports the chemotherapeutic moiety to the cancer cell membrane and, ultimately, into the cell ([14]–[16]).

The subject of the next test is breast cancer cells. The following applies: ref [13], [20]; cited from earlier work. From the text:
(§7) NT4 peptides can be conjugated with different functional units and can selectively deliver drugs for cancer therapy or transport tracers for tumor imaging ([11], [12], [15]–[18]). […] NT4 transports the chemotherapeutic moiety to the cancer cell membrane and, ultimately, into the cell ([14]–[16]). In animal models of cancer, the higher concentration of the cytotoxic drug at the site of the tumo ...

Test [6] relates to pancreas adenocarcinoma cells. The following applies: ref [13]; cited from earlier work.
Text: as §7

In the next test the test system is glypican-3. In words: SPR, NT4 binding to recombinant glypican-3. More on the design: species or system human. The note with it: rHSPG over immobilized NT4. The method, then:
as §4, §5, §6

Results on one substance are retold here after PMC6759624, “Unraveling Heparan Sulfate Proteoglycan Binding Motif for Cancer Cell Selectivity” (Frontiers in Oncology, 2019).

“Also recorded” adds a separate entry of the source.

Regarding (pyELYENKPRRPYIL)4K2K-beta-Ala [NT4], the “NT4 binding after heparinase treatment” value in test [1] is “much lower than to control cells”; in [2] (PANC-1, heparinase I/III blend 0.03 IU/ml, 1 h + 1 h at 37°C, 30 min, room temperature, streptavidin–FITC, repeated two times) it was “much lower than to control cells”; in test [3], “much lower than to control cells”; in test [4] (HT-29, heparinase I/III blend 0.03 IU/ml, 1 h + 1 h at 37°C, 30 min, room temperature, streptavidin–FITC, repeated two times), “much lower than to control cells”. For the same substance, the “NT4 cell binding relative to other cell lines” value is on record as “bind NT4 better than the others; also recorded: higher in cell lines with lower expression of sulfatases” in test [2] (PANC-1 (low sulfatase expression) versus MCF-7 and MDA-MB-231, flow cytometry); “bind NT4 better than the others; also recorded: higher in cell lines with lower expression of sulfatases” in test [4] (HT-29 (low sulfatase expression) versus MCF-7 and MDA-MB-231, flow cytometry). For the same substance, in the test on cancer cells or tissues, the “inhibition of NT4 binding and internalization by heparin and HS” value is reported as “completely inhibited”. In addition, the “binding to syndecan-3” value in the test on syndecan-3 is “does not bind; also recorded: did not bind”. Moreover, the “binding to syndecan-4” value in the test on syndecan-4 is reported as “binds”. Besides, the “binding to heparan sulfate” value in [5] was “preferential high-affinity binding”. Also, the binding to heparin entry in test [5] was “preferential high-affinity binding”. Further, the “effect on growth factor-induced migration and invasiveness” value with breast cancer cells is listed as “inhibited”. In addition, the “effect on oriented migration” value in [6] is recorded as “inhibited”. In the test on glypican-3, the “binding to glypican-3” value is “bound; also recorded: binds”.
